Laboratory results published in ChEMBL document CHEMBL5260811, “Drug development against tuberculosis: Impact of alkaloids” (Eur J Med Chem, 2017).

Tested on: Mycobacterium tuberculosis
Test: Antimycobacterial activity against Mycobacterium tuberculosis H37Rv
Assay type: functional
Details: not given

| SMILES | MIC |
| --- | --- |
| Nc1nc(/C=C/CNC(=O)c2cc(Br)c[nH]2)c[nH]1 | 6.1 µg/mL |
| C=C[C@@]1(C)C(Cl)C[C@@H]2C(C)(C)c3cccc4[nH]c5c(c34)[C@@]2(O)[C@]1(C#N)[C@@]1(CO1)C5(C)C (some centres not stated) | 2 µM |
| O=C1C(c2ccc(O)cc2)=C(c2ccc(O)cc2)C(=O)N1CCc1ccc(O)cc1 | 16 µg/mL |
| C=C[C@@]1(C)[C@H](Cl)C[C@@H]2C(C)(C)c3cccc4[nH]c5c(c34)[C@@]2(O)[C@]1(C#N)C=CC5(C)C | 2.8 µg/mL |
| Nc1c(Br)cc(O)c(CC(=O)O)c1Br | 15.9 µg/mL |
| C=C1c2[nH]cc(Br)c2[C@H]2NC(N)=N[C@]23CCCN13 | 64 µg/mL |
| C=C[C@]1(C)C/C=C(/C#N)C(C)(C)c2[nH]c3cccc4c3c2C(=C)[C@H](CC1Cl)C4(C)C (some centres not stated) | 53.7 µM |
| CC1CCC(=NNC(=O)c2[nH]c3ccc(F)cc3c2-c2ccccc2)CC1 (configuration not stated) | 6.25 µg/mL |
| CCCC1CCC2(CC1)SCC(=O)N2NC(=O)c1[nH]c2ccc(F)cc2c1-c1ccccc1 (configuration not stated) | 6.25 µg/mL |
| COc1cc2c(cc1OC)C(CC(C)=O)N(C)c1c-2ccc2cc3c(cc12)OCO3 (configuration not stated) | 6.2 µg/mL |

Tested on: Mycobacterium tuberculosis
Test: Antimycobacterial activity against Mycobacterium tuberculosis
Assay type: functional
Details: not given

| SMILES | IC [µg/mL] |
| --- | --- |
| C/C=C/[C@H]1C=C[C@H]2[C@@H]3C[C@H](C)CC[C@H]3[C@@H]3Oc4ccc(cc4)C[C@@H]4C(=O)NC(=O)[C@H]4C(=O)[C@@H]1[C@H]23 | 3.125 |
| C=C[C@H]1C=C[C@H]2[C@@H]3C[C@H](C)CC[C@H]3[C@@H]3Oc4ccc(cc4)C[C@]4(O)NC(=O)[C@]5(O[C@H]54)C(=O)[C@@H]1[C@H]23 | 0.78 |
| C=C[C@H]1C=C[C@H]2[C@@H]3C[C@H](C)CC[C@H]3[C@@H]3Oc4ccc(cc4)C[C@@H]4C(=O)NC(=O)[C@H]4C(=O)[C@@H]1[C@H]23 | 0.78 |
| C=C[C@H]1C=C[C@H]2[C@@H]3C[C@H](C)CC[C@H]3[C@@H]3Oc4ccc(cc4)C[C@@]4(O)C[C@H](C(=O)N4)C(=O)[C@@H]1[C@H]23 | 0.78 |
| CO/N=c1\[n-]cnc2c1[n+](C/C=C(\C)CC/C=C(\C)CCC1=C(C)CCCC1(C)C)cn2C | 6.25 |
| CC1=C(CC/C(C)=C/CC/C(C)=C/C[n+]2cn(C)c3nc[n-]/c(=N\OC(C)(C)C)c32)C(C)(C)CCC1 | 6.25 |

Same assay, conditions: Mycobacterium tuberculosis

| SMILES | MIC |
| --- | --- |
| c1cc2c[n+](c1)CCCCCCCCCCCCc1ccc[n+](c1)CCCCCCCCCCC2 | 9.3 µg/mL |
| CCCC/C=C\CCCCc1cc(=O)c2ccccc2n1C | 2 µg/mL |
| Cn1c(=O)ccc2ccccc21 | 6.25 µg/mL |
| COC(=O)c1ccc2[nH]c3ccccc3c2c1 | 50 µg/mL |
| COc1c(O)c2c3c(c1OC)CCN[C@H]3Cc1cc3c(cc1-2)OCO3.Cl | 4 µg/mL |
| COc1ccc(CCC2CCc3ccccc3N2C)cc1OC (configuration not stated) | 6.25 µg/mL |
| COC(=O)N1CCc2c(OC)c(OC)c(O)c3c2[C@@H]1Cc1cc2c(cc1-3)OCO2 | 128 µg/mL |
| COc1c(O)c2c3c(c1OC)CCN[C@H]3Cc1cc3c(cc1-2)OCO3 | 64 µg/mL |
| CCCC/C=C\CCCCCCc1cc(=O)c2ccccc2n1C | 2 µg/mL |
| c1cc2c[n+](c1)CCCCCCCCCCCCCCc1ccc[n+](c1)CCCCCCCCCC2 | 5.3 µg/mL |
| CC(=O)NCCC1=C2Nc3ccccc3C3C=CN=C(C4=C1SCO4)C23 (configuration not stated) | 17 µM |
| CCCCC/C=C\C/C=C\CCCCc1cc(=O)c2ccccc2n1C | 2 µg/mL |
| O=C(NN1C(=O)C(Cl)C1c1ccc(Cl)cc1)c1cc(O)c(O)c(O)c1 (configuration not stated) | 0.83 µg/mL |
| CC(=O)NCCC1C2=C3C(=NC=CC3c3ccccc3N2)C2=C1SCC(=O)N2 (configuration not stated) | 32 µM |
| CC(=O)NCCC1C2=C3C(=NC=CC3c3ccccc3N2)c2ncsc21 (configuration not stated) | 34 µM |
| c1cc2c[n+](c1)CCCCCCCCCCCCCCc1ccc[n+](c1)CCCCCCCCCCC2 | 4.6 µg/mL |
| CCCCC/C=C\C/C=C\CCc1cc(=O)c2ccccc2n1C | 2 µg/mL |
| O=C(NN1C(=O)C(Cl)C1c1cccc(Cl)c1)c1cc(O)c(O)c(O)c1 (configuration not stated) | 0.57 µg/mL |
| CCCCCCCCCCCc1cc(=O)c2ccccc2n1C | 2 µg/mL |
| CN(C)c1ccc(C2C(Cl)C(=O)N2NC(=O)c2cc(O)c(O)c(O)c2)cc1 (configuration not stated) | 0.62 µg/mL |
| c1cc2c[n+](c1)CCCCCCCCCCCCc1ccc[n+](c1)CCCCCCCCCC2 | 4.6 µg/mL |

| SMILES | MIC |
| --- | --- |
| c1cc2c[n+](c1)CCCCCCCCCCCCCc1ccc[n+](c1)CCCCCCCCCC2 | 6.6 µg/mL |
| O=C(NN1C(=O)C(Cl)C1c1ccccc1Cl)c1cc(O)c(O)c(O)c1 (configuration not stated) | 0.76 µg/mL |
| [C-]#[N+][C@]12[C@H]3O[C@H]3C(C)(C)c3[nH]c4cccc5c4c3[C@]1(O)[C@H](CC[C@]2(C)C=C)C5(C)C | 13.1 µM |
| [C-]#[N+][C@@H]1[C@@H]2c3c(C(C)(C)C=C)[nH]c4cccc(c34)C(C)(C)[C@H]2C[C@@H](Cl)[C@]1(C)C=C [AMBIGUINE A ISONITRILE] | 46.7 µM |
| [C-]#[N+][C@@H]1[C@]2(O)c3c(C(C)(C)C=C)[nH]c4cccc(c34)C(C)(C)[C@H]2CC[C@]1(C)C=C [AMBIGUINE C ISONITRILE] | 7 µM |
| [C-]#[N+][C@]12[C@H]3O[C@H]3C(C)(C)c3[nH]c4cccc5c4c3[C@]1(O)[C@H](C[C@@H](Cl)[C@]2(C)C=C)C5(C)C [AMBIGUINE E ISONITRILE] | 21 µM |
| [C-]#[N+][C@]12C=CC(C)(C)c3[nH]c4cccc5c4c3[C@]1(O)[C@H](CC[C@]2(C)C=C)C5(C)C [AMBIGUINE L ISONITRILE] | 4.5 µg/mL |
| [C-]#[N+][C@]12C[C@@H](O)C(C)(C)c3[nH]c4cccc5c4c3[C@]1(O)[C@H](C[C@@H](Cl)[C@]2(C)C=C)C5(C)C [AMBIGUINE M ISONITRILE] | 3.3 µg/mL |
| [C-]#[N+][C@]12C[C@@H](O)C(C)(C)c3[nH]c4cccc5c4c3[C@]1(O)[C@H](CC[C@]2(C)C=C)C5(C)C [AMBIGUINE N ISONITRILE] | 10.9 µg/mL |
| Nc1c(Br)cc(Br)cc1CN[C@H]1CC[C@H](O)CC1 [AMBROXOL] | 6 µg/mL |
| CN(Cc1cc(Br)cc(Br)c1N)C1CCCCC1 [BROMHEXINE] | 6 µg/mL |
| COc1ccc2c(c[n+](C)c3c4cc5c(cc4ccc23)OCO5)c1OC.[Cl-] [CHELERYTHRINE CHLORIDE] | 14.3 µg/mL |
| COc1ccc2c(c1)[nH]c1cc(OC)c(C(=O)O)cc12 [CLAUSINE K] | 100 µg/mL |
| C=CC(C)(C)c1[nH]c2c(CC=C(C)C)cc(CC=C(C)C)cc2c1C[C@@H]1NC(=O)[C@H](C)NC1=O [ECHINULIN] | 170 µg/mL |
| [C-]#[N+][C@@H]1[C@@H]2c3c[nH]c4cccc(c34)C(C)(C)[C@H]2C[C@@H](Cl)[C@]1(C)C=C [HAPALINDOLE G] | 6.8 µM |
| [C-]#[N+][C@@H]1[C@H]2c3c[nH]c4cccc(c34)C(C)(C)[C@@H]2CC[C@]1(C)C=C [HAPALINDOLE H] | 58.8 µM |
| O=[N+]([O-])c1cn2c(n1)OC[C@@H](OCc1ccc(OC(F)(F)F)cc1)C2 [PRETOMANID] | 0.015 µg/mL |
| CO[C@H]1/C=C/O[C@@]2(C)Oc3c(C)c(O)c4c(O)c(c(/C=N/N5CCN(C6CCCC6)CC5)c(O)c4c3C2=O)NC(=O)/C(C)=C\C=C\[C@H](C)[C@H](O)[C@@H](C)[C@@H](O)[C@@H](C)[C@H](OC(C)=O)[C@@H]1C [RIFAPENTINE] | 0.02 µg/mL |
| C[n+]1cc2c3c(ccc2c2ccc4cc5c(cc4c21)OCO5)OCO3.[Cl-] [SANGUINARIUM CHLORIDE] | 24.5 µg/mL |
| O=[N+]([O-])c1cn2c(n1)OC[C@@H](OCc1ccc(-c3ccc(OC(F)(F)F)cc3)nc1)C2 [TBA-354] | 0.34 µg/mL |
